“And” between values parts separate entries of the source, which are not always exact repeats. Identical values can stand only once.
Experiments:
MAL^TIR = biological target: T1, MAL^TIR (Homo sapiens, UniProt P58753); test: T‐Surf phage library (P8 and P3) selection against MAL^TIR, four rounds, NGS read counts; type: binding; settings: for Population: 4th round of selection against MAL TIR, share of NGS reads; for P3_MAL Rank (after) / P3_MAL Rank (before): P3 library; for P8_MAL Rank (after) / P8_MAL Rank (before): P8 library
T1 construct: MAL (residues 79–221); 6xHis; made in house; host or cells: E. coli BL21 (DE3)
T1 sequence (P58753 79-221): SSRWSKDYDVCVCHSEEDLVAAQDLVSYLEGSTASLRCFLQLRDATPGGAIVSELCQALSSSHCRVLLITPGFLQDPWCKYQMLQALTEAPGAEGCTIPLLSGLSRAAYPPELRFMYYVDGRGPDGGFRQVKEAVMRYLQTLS
Method in brief: (§1)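 P8 and P3 T‐Surf libraries panned against plate-coated TIR domains (5 µg mL^−1), 1 h binding at RT, acid elution and TG1/helper-phage amplification per round. After four rounds, pools were PCR-barcoded and sequenced (NovaSeq, 100 bp paired-end, Phred ≥30); peptides ranked by read counts.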

MyD88^TIR = biological target: T2, MyD88^TIR (Homo sapiens, UniProt Q99836); test: T‐Surf phage library (P8 and P3) selection against MyD88^TIR, four rounds, NGS read counts; type: binding; settings: for P8_MyD88 Rank (after) / P8_MyD88 Rank (before): P8 library; for P3_MyD88 Rank (after) / P3_MyD88 Rank (before): P3 library; for Population: 4th round of selection against MyD88 TIR, share of NGS reads
T2 construct: MyD88 (residues 148–296); 6xHis; made in house; host or cells: E. coli BL21 (DE3)
T2 sequence (Q99836 148-296): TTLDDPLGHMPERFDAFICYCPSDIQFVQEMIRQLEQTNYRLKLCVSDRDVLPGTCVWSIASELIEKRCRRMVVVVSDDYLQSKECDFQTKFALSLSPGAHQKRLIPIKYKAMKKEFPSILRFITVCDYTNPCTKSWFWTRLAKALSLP
Method in brief: as §1

[1] = P8_MAL: rank by count after grouping
[2] = P8_MAL: rank by count before grouping
[3] = P3_MAL: rank by count after grouping
[4] = P3_MAL: rank by count before grouping
[5] = P3_MyD88: rank by count after grouping
[6] = P3_MyD88: rank by count before grouping
[7] = P8_MAL pool: P8 T-Surf phage library
[8] = selection against MyD88, rank after grouping
[9] = selection against MyD88, rank before grouping
[10] = P3_MAL pool: P3 T-Surf phage library
[11] = P3_MyD88 pool: P3 T-Surf phage library
[12] = selection against MAL, rank after grouping
[13] = selection against MAL, rank before grouping
[14] = selection against MAL TIR, rank by count after grouping
[15] = selection against MAL TIR, rank by count before grouping

RGFLSHLRHHLQAKDH
Rank (after) (MAL^TIR; [1]): 107 | Rank (before) (MAL^TIR; [2]): 654 | Rank (after) (MyD88^TIR; P8_MyD88: rank by NGS read count after grouping): 907 | Rank (before) (MyD88^TIR; P8_MyD88: rank by NGS read count before grouping): 3395

RLLKWKEALHQFHSW
Rank (after) (MAL^TIR; [3]): 136 | Rank (before) (MAL^TIR; [4]): 436 | Rank (after) (MyD88^TIR; [5]): 130 | Rank (before) (MyD88^TIR; [6]): 708

RNFVAYLFQALANKGI
Population (MAL^TIR; [7]): 0.0034% | P8_MyD88 Rank (after) (MyD88^TIR; [8]): 483 | P8_MyD88 Rank (before) (MyD88^TIR; [9]): 3397

SFFGINCVIICQRRS
Rank (after) (MAL^TIR; [3]): 126 | Rank (before) (MAL^TIR; [4]): 360 | P3_MyD88 Rank (after) (MyD88^TIR; [8]): 545 | P3_MyD88 Rank (before) (MyD88^TIR; [9]): 2934

SIFREGLWRLLELSKK
Population (MAL^TIR; [10]): 0.0259% | Population (MyD88^TIR; [11]): 0.00291%

SSFHEGLWRLLELSKK
Population (MAL^TIR; [10]): 0.00413% | Population (MyD88^TIR; [11]): 0.00466%

SSFREGLWHLLELSKK
Population (MAL^TIR; [10]): 0.00413% | Population (MyD88^TIR; [11]): 0.00553%

SSFREGLWRLLELSKLRYAM
P3_MAL Rank (after) (MAL^TIR; [12]): 558 | P3_MAL Rank (before) (MAL^TIR; [13]): 3151 | P3_MyD88 Rank (after) (MyD88^TIR; [8]): 517 | P3_MyD88 Rank (before) (MyD88^TIR; [9]): 3173

SSFREGLWRLLVLSKK
Population (MAL^TIR; [10]): 0.00338% | Population (MyD88^TIR; [11]): 0.00437%

SSFREGPWRLLELSKK
Population (MAL^TIR; [10]): 0.00338% | Population (MyD88^TIR; [11]): 0.00466%

WFWDKLIYALSRNPH
P3_MAL Rank (after) (MAL^TIR; [14]): 278 | P3_MAL Rank (before) (MAL^TIR; [15]): 712 | Rank (after) (MyD88^TIR; [5]): 155 | Rank (before) (MyD88^TIR; [6]): 549

WFYERLVSLILRDTKV
Population (MAL^TIR; [7]): 0.00432% and 0.00402% and 0.00371% and 0.0034% and 0.00309% and 0.00278% | P8_MyD88 Rank (after) (MyD88^TIR; 4R selection against MyD88, rank after grouping): 615 | P8_MyD88 Rank (before) (MyD88^TIR; 4R selection against MyD88, rank before grouping): 1356

WKNALANIAEILGFEL
P8_MAL Rank (after) (MAL^TIR; [14]): 287 | P8_MAL Rank (before) (MAL^TIR; [15]): 1431 | Rank (after) (MyD88^TIR; P8_MyD88: rank by count after grouping): 162 | Rank (before) (MyD88^TIR; P8_MyD88: rank by count before grouping): 180 | Population (MyD88^TIR; P8_MyD88 pool: P8 T-Surf phage library): 0.00732%

YAFTGHLHRYLVQHCE
Rank (after) (MAL^TIR; [3]): 115 | Rank (before) (MAL^TIR; [4]): 207 | Rank (after) (MyD88^TIR; [5]): 169 | Rank (before) (MyD88^TIR; [6]): 841

YAFTGHLHRYLVQHGV
Population (MAL^TIR; [10]): 0.0109% | Population (MyD88^TIR; [11]): 0.00378%

YNFISHLYAALQRKHVET
P3_MAL Rank (after) (MAL^TIR; [14]): 253 | P3_MAL Rank (before) (MAL^TIR; [15]): 754

YNFISHLYDALHQFHSWV
Rank (after) (MAL^TIR; [3]): 150 | Rank (before) (MAL^TIR; [4]): 523

YNFISHLYDTLHRNRN
P3_MAL Rank (after) (MAL^TIR; [14]): 272 | P3_MAL Rank (before) (MAL^TIR; [15]): 1578

YNLISQLYEALHLNRI
P3_MAL Rank (after) (MAL^TIR; 4R selection against MAL, rank after grouping): 645 | P3_MAL Rank (before) (MAL^TIR; 4R selection against MAL, rank before grouping): 1587

YQWRNALTAAANLRGW
P3_MAL Rank (after) (MAL^TIR; [14]): 238 | P3_MAL Rank (before) (MAL^TIR; [15]): 1525

YQWRNALTAAANLSGW
Population (MAL^TIR; [10]): 0.00676%

YTALTKSGVHAFRDND
Rank (after) (MAL^TIR; [3]): 475 | Rank (before) (MAL^TIR; [4]): 1552

YTALTNIGFHTFLDND
P3_MAL Rank (after) (MAL^TIR; [14]): 195 | P3_MAL Rank (before) (MAL^TIR; [15]): 1542

YTALTNSASHTFRGND
Rank (after) (MAL^TIR; [3]): 444 | Rank (before) (MAL^TIR; [4]): 1551

YTALTNSGFHAFSDKD
Rank (after) (MAL^TIR; [1]): 456 | Rank (before) (MAL^TIR; [2]): 1556

YTALTNSGFHTFLDNE
P3_MAL Rank (after) (MAL^TIR; [14]): 217 | P3_MAL Rank (before) (MAL^TIR; [15]): 1547

YVFTGNLHRYLMQLGV
P3_MAL Rank (after) (MAL^TIR; [12]): 536 | P3_MAL Rank (before) (MAL^TIR; [13]): 1341

YVLHFLLFSRREPEYI
P8_MAL Rank (after) (MAL^TIR; [12]): 487 | P8_MAL Rank (before) (MAL^TIR; [13]): 1524

— publication PMC11714206, “Massively Parallel Screening of Toll/Interleukin‐1 Receptor (TIR)‐Derived Peptides Reveals Multiple Toll‐Like Receptors (TLRs)‐Targeting Immunomodulatory Peptides” (Advanced Science, 2024)
